Earlier results in patent US8530463B2, “Multimodal particulate formulations” (Hale Biopharma Ventures LLC, priority 2007, dated 2013).

For `Cc1ncc2n1-c1ccc(Cl)cc1C(c1ccccc1F)=NC2` [Midazolam, 8-chloro-6-(2-fluorophenyl)-1-methyl-4H-imidazo[1,5-a]benzodiazepine], the “solubility in most aqueous solutions” value (neutral pH (e.g. about 6 to 8)) is listed as “relatively insoluble” and the solubility in water (pH lower than about 4) is listed as “soluble”.
